Measurements published in patent US8791268B2, “Vanilloid receptor ligands, pharmaceutical compositions containing them, process for making them, and use thereof for treating pain and other conditions” (Gruenenthal GmbH, priority 2007, dated 2014).

Key:
Format in all cases: cell-based
vanilloid receptor (VR1) = vanilloid receptor (VR1) (Homo sapiens (Human), UniProt Q8NER1); assay: FLIPR Ca2+ influx assay on CHO-K1 cells transfected with the human VR1 gene, capsaicin stimulus (Pharmacological Method II)
Chain of vanilloid receptor (VR1) (Q8NER1 whole entry): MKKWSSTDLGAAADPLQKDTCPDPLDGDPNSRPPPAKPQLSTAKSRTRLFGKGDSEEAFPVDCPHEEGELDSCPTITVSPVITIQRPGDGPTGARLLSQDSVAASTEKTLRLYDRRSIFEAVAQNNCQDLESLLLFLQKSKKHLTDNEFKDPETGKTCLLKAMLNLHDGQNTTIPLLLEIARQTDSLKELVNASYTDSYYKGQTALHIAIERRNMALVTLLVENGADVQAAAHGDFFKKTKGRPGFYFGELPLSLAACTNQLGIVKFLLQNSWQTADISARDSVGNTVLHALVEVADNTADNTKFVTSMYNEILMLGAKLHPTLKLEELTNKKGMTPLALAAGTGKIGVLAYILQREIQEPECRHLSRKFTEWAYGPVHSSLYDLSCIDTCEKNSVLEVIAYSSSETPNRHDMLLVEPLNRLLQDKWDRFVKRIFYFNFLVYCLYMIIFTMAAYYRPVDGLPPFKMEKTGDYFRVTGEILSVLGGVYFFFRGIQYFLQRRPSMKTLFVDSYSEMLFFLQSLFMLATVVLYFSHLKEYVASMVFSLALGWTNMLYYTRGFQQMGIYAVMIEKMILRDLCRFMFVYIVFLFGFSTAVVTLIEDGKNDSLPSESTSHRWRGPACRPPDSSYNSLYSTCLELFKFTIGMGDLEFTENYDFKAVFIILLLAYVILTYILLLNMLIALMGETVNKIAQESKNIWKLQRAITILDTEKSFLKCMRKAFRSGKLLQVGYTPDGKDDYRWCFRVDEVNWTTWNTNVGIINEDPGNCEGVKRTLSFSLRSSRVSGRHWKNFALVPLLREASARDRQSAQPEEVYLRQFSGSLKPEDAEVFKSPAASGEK
Method: Furthermore, preference may be given to compounds of the invention of the general formulas I, Ia, Ib and Ic, which in the FLIPR assay using CHO—K1 cells, which have been transfected with the human VR1 gene in a concentration below 2000 nM, preferably below 1000 nM, more preferably below 300 nM, even more preferably below 100 nM, still more preferably below 75 nM, very preferably below 50 nM and most preferably below 10 nM, cause a 50 percent displacement of capsaicin present in a concentration of 100 nM. In the FLIPR assay, the Ca^2+ influx is quantified with the aid of a Ca^2+-sensitive dye (type Fluo-4, Molecular Probes Europe BV, Leiden, Netherlands) in a fluorescent imaging plate reader (FLIPR, Molecular Devices, Sunnyvale, USA), as described below.
II. Functional Investigations on the Vanilloid Receptor (VR1)
The agonistic or antagonistic action of the substances to be examined on the vanilloid receptor (VR1) can alternatively be determined by the following assay. According to this assay the Ca^2+ influx through the canal is quantified with the aid of a Ca^2+-sensitive dye (type Fluo-4, Molecular Probes, Europe BV, Leiden, Netherlands) in a fluorescent imaging plate reader (FLIPR, Molecular Devices, Sunnyvale, USA).
Chinese hamster ovary cells (CHO—K1 cells, European Collection of Cell Cultures (ECACC) UK) are stably transfected with the VR1 gene. For carrying out functional investigations, these cells are plated on poly-D-lysine-coated, black 96-well plates with a clear bottom (BD Biosciences, Heidelberg, Germany) in a density of 25,000 cells/well. The cells are incubated overnight at 37° C. and 5% CO2 in a culture medium (Nutrient Mixture ‘am’s F12, 10% by volume of FCS (fetal calf serum), 18 μg/mL of L-proline). On the following day the cells are incubated with Fluo-4 (Fluo-4 2 μM, Pluronic F127 0.01 by volume, Molecular Probes in HBSS (Hank's buffered saline solution), Gibco Invitrogen GmbH, Karlsruhe, Germany) for 30 minutes at 37° C. The plates are then washed 3 times with HBSS buffer and, after another incubation over a period of 15 minutes at RT, are used in the FLIPR for Ca^2+ measurement. The Ca^2+-dependent fluorescence is measured prior to and following the addition of the substances being examined (wavelength λex=488 nm, λem=540 nm). Quantification is carried out by measuring the highest fluorescence intensity (PC, fluorescence counts) over time.
The FLIPR protocol consists of two substance additions. First of all, the substances to be tested (10 μM) are pipeted onto the cells and the Ca^2+ influx is compared with the control (capsaicin 10 μM) (percentage activation based on the Ca^2+ signal following addition of 10 μM of capsaicin). Following incubation over a period of 5 minutes 100 nM of capsaicin are applied and the influx of Ca^2+ is likewise determined.
Desensitizing agonists and antagonists lead to a suppression of the Ca^2+ influx. The percentage inhibition compared with the maximum inhibition achieved with 10 μM of capsaicin is calculated.
Based on the percentage displacement effected by different concentrations of the compounds of the general formula Ito be tested, IC50 inhibition concentrations that cause 50 percent displacement of capsaicin are calculated. Conversion using the Cheng Prusoff equation gave Ki values for the test substances (Cheng, Prusoff; Bioch. Pharmacol. 22, 3099-3108, 1973).
The affinity of the compounds of the invention for the vanilloid receptor 1 (VR1/TRPV1-Receptor) was detected as described above (Pharmacological Methods I and II respectively).

VR1/TRPV1 receptor = VR1/TRPV1 receptor (Homo sapiens (Human), UniProt Q8NER1); assay: Inhibition of human VR1/TRPV1 following pH-stimulus; conditions: ne = no effect, no reaction observed
Chain of VR1/TRPV1 receptor (Q8NER1 whole entry): as above

[1] = biological target: vanilloid receptor 1 (VR1/TRPV1) (Rattus norvegicus (Rat), UniProt O35433); assay: FLIPR Ca2+ influx assay on rat dorsal root ganglia cells, capsaicin stimulus (Pharmacological Method I)
Chain of vanilloid receptor 1 (VR1/TRPV1) (O35433 whole entry): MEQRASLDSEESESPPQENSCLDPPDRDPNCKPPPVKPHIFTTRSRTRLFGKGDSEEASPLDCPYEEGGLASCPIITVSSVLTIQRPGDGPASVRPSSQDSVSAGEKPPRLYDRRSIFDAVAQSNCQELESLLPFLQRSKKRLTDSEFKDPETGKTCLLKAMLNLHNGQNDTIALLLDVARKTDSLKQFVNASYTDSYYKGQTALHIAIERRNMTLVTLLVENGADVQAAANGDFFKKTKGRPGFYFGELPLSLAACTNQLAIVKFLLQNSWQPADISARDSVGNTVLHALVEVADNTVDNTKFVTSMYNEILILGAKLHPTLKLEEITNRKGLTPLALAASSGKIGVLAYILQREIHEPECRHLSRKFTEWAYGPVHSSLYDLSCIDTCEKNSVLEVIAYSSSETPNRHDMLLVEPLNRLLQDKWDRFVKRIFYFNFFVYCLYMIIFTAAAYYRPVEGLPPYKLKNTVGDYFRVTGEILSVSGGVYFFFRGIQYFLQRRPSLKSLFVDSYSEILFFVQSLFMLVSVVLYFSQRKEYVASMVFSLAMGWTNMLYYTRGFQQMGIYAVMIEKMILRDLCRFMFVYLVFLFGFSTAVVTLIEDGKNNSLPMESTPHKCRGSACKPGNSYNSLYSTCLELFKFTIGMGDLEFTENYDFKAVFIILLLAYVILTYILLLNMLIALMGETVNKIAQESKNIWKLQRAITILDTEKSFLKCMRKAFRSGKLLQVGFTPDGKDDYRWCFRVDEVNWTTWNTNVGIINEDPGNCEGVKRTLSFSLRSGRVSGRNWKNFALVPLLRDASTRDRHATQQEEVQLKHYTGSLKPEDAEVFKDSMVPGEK
Source text: I. Functional Investigation on the Vanilloid Receptor 1 (VR1/TRPV1 Receptor)
The agonistic or antagonistic action of the substances to be investigated on the vanilloid receptor 1 (VR1/TRPV1) of the species rat can be determined using the following assay. According to this assay, the Ca^2+ influx through the receptor channel is quantified with the aid of a Ca^2+-sensitive dye (Type Fluo-4, Molecular Probes Europe BV, Leiden Netherlands) in a fluorescent imaging plate reader (FLIPR, Molecular Devices, Sunnyvale, USA).
Complete medium: 50 mL of HAMS F12 Nutrient Mixture (Gibco Invitrogen GmbH, Karlsruhe, Germany) with
10% by volume of FCS (fetal calf serum, Gibco Invitrogen GmbH, Karlsruhe, Germany, heat-inactivated);
2 mM of L-glutamine (Sigma, Munich, Germany);
1% by weight of AA solution (antibiotics/antimycotics solution, PAA, Pasching, Austria)
and 25 ng/mL of Medium NGF (2.5 S, Gibco Invitrogen GmbH, Karlsruhe, Germany) Cell culture plate: Poly-D-lysine-coated, black 96-well plates with a clear bottom (96-well black/clear plate, BD Biosciences, Heidelberg, Germany) are additionally coated with laminin (Gibco Invitrogen GmbH, Karlsruhe, Germany) by diluting laminin to a concentration of 100 μg/mL with PBS (Ca—Mg-free PBS, Gibco Invitrogen GmbH, Karlsruhe, Germany). Aliquots having a concentration of 100 μg/mL of laminin are taken and stored at −20° C. The aliquots are diluted with PBS in the ratio 1:10 to 10 μg/mL of laminin and in each case 50 μL of the solution is pipeted into a well of the cell culture plate. The cell culture plates are incubated at 37° C. for at least two hours, the supernatant solution is aspirated and the wells are in each case washed twice with PBS. The coated cell culture plates are stored with supernatant PBS and this is removed only directly before the addition of the cells.
Preparation of the Cells:
The vertebral column is removed from decapitated rats and this is laid directly in a cold, i.e. ice bath-surrounded, HBSS buffer (Hank's buffered saline solution, Gibco Invitrogen GmbH, Karlsruhe, Germany) and 1% by volume of an AA solution (antibiotics/antimycotics solution, PAA, Pasching, Austria) is added. The vertebral column is cut in two, longitudinally, and the vertebral canal is removed together with fascias. Subsequently, the dorsal root ganglia (DRGs) are removed and in turn stored in cold HBSS buffer to which 1% by volume of an AA solution has been added. The DRGs completely freed from blood residues and spinal nerves are in each case transferred to 500 μL of cold collagenase Type 2 (PAA, Pasching, Austria) and incubated at 37° C. for 35 minutes. After the addition of 2.5% by volume of trypsin (PAA, Pasching, Austria), the preparation is incubated at 37° C. for a further 10 minutes. On completion of incubation, the enzyme solution is carefully pipeted off and 500 μL of complete medium are added to the DRGs in each case. The DRGs are in each case repeatedly suspended, drawn through No. 1, No. 12, and No. 16 needles by means of a syringe and transferred to 50 mL Falcon tubes and these are filled to 15 mL with complete medium. The contents of each Falcon tube are in each case filtered through a 70 μm Falcon filter insert and centrifuged at 1200 rpm and RT for 10 minutes. The resulting pellet is in each case taken up in 250 μL of complete medium and the cell count is determined.
The number of cells in the suspension is adjusted to 3×10^5 per mL and in each case 150 μL of this suspension are added to a well of the cell culture plates coated as described above. The plates are allowed to stand at 37° C., 5% by volume of CO2 and 95% relative humidity for two to three days in an incubator. […]

Row | Ki (vanilloid receptor (VR1)) | IC50 (Human) following pH-stimulus (VR1/TRPV1 receptor) | Ki [1] | Structure (SMILES)
1 | 40.6 nM | ne | 60.1 nM | CC1CCN(c2nc(C(F)(F)F)ccc2CNC(=O)Cc2cc(Br)cc(Br)c2)CC1 [Example 2, 2-(3,5-Dibromophenyl)-N-((2-(4-methylpiperidin-1-yl)-6-(trifluoromethyl)pyridin-3-yl)methyl)acetamide]
2 | 34 nM | ne | 80 nM | CC1CCN(c2nc(C(F)(F)F)ccc2CNC(=O)Cc2cccc(F)c2)CC1 [Example 4, 2-(3-Fluorophenyl)-N-(4-methyl-6′-trifluoromethyl-3,4,5,6-tetrahydro-2H-[1,2′]bipyridinyl-3′-ylmethyl)acetamide]
